From patent US20050227300A1, “Use of alpha-tubulin acetylation levels as a biomarker for protein deacetylase inhibitors” (priority 2001, published 2005)

What was measured:
[1] = tested on: Tubulin Acetylation in HCT 116 Tumor Xenografts; assay: Tubulin acetylation in HCT 116 tumor xenografts in mice (western blotting with anti-acetylated alpha-tubulin antibody); format: in vivo
Method: In order to correlate the antitumor activity of HDAC-2 with its induction of tubulin acetylation, levels of acetylated tubulin are examined in tumors of athymic mice bearing HCT 116 treated with HDAC-2 and control mice. Mice are dosed with 100 mg/kg of HDAC-2 and the tumors are dissected 3, 6, 16 or 24 h post dose. Tubulin acetylation levels are detected with antibodies specific for acetylated alpha-tubulin. […] Tumors are dissected 1 hour post dose and levels of acetylated tubulin determined by western blotting with the anti-acetylated alpha-tubulin antibody.

[2] = tested on: alpha-tubulin acetylation; assay: Time course of HDAC-2 induced tubulin acetylation in cell lines; format: cell-based; settings: 200 nM
From the text: Time Course of HDAC-2 Induced Tubulin Acetylation in Cell Lines

HCT 166 cells = assay: 2-D gel electrophoresis / western blotting with anti-acetyllysine of extracts of HDAC-2 treated cells; format: cell-based, human; settings: HDAC-2 treated vs control, IEF pH 3-10
From the text: For Identifying the protein, cell extracts of HDAC-2 treated and control HCT 166 cells are separated by 2-D gel electrophoresis with a broad range IEF gel (pH 3-10) in the first dimension and analyzed by western blotting with anti-acetyllysine.
One set of gels is used for immunoblotting with anti-acetyllysine antibody detection and a second set is reserved for staining of the gel with Coomassie blue.

[3] = athymic mice bearing HCT 116, 100 mg/kg, intravenous

Compound: O=C(/C=C/c1ccc(CN(CCO)CCc2c[nH]c3ccccc23)cc1)NO [HDAC-2, N-hydroxy-3-[4-[[(2-hydroxyethyl)[2-(1H-indol-3-yl)ethyl]-amino]methyl]phenyl]-2E-2-propenamide]
- induction of tubulin acetylation in the tumors ([1]; HCT 116 tumor bearing mice, i.v. dose as low as 2 mg/kg, 1 hour post dose): able to induce tubulin acetylation
- Proliferating Cell Nuclear Antigen (PCNA) levels in tumors [1, 3]: essentially invariant
- duration of increase in acetylated alpha-tubulin in tumors [1, 3]: at least 8 h
- time to consistent increases in acetylated alpha-tubulin in tumors [1, 3]: ≤ 30 min
- time of maximal alpha-tubulin acetylation [2]: 4 h
- acetylation of alpha-tubulin reached, relative to the maximal acetylation (at 4 hours) ([2]; 30 min after addition): more than 30%
- state of cells at last time point ([2]; 18 hours): cells are visibly damaged
- anti-acetyllysine immunostaining of cell extracts (histone bands and non-histone spot around pH 4.5, later identified as acetylated alpha-tubulin) (HCT 166 cells): prominently stained bands of low molecular weight corresponding to histones are visible at the lower right corner as well as a non-histone spot around pH 4.5
